This note sets out measurements from patent US20230081426A1, “COMPOUNDS AND METHODS FOR KRAS MODULATION AND INDICATIONS THEREFOR” (Plexxikon Inc., priority 2020, published 2023).

Experiment [1] addresses T1, G12C-mutant human KRAS (amino acid residues 1-188) (Homo sapiens, UniProt P01116, G12C).
T1 construct: G12D or G12C-mutant human KRAS (amino acid residues 1-188) with FLAG tag; made in house; host or cells: E. coli
The experiment is described as follows: KRAS Binding Disruption Assay (AlphaScreen; biotinylated KRpep-2d analogue or RAF1-RBD), G12C. The note with it: geometric mean, read-out: KRAS GMean IC50 (uM) MUTATION: G12C. An outline of the steps: (§1)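 Displacement format with mutant KRAS, biotinylated KRpep-2d analogue or RAF1-RBD (5-20 nM each) at pH 7.5 with 5 mM MgCl2.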
(In Alpha technology, singlet oxygen from a donor bead excites a nearby acceptor bead.)

Experiment [2] has as its target T2, G12D-mutant human KRAS (amino acid residues 1-188) (Homo sapiens, UniProt P01116, G12D).
T2 construct: G12D or G12C-mutant human KRAS (amino acid residues 1-188) with FLAG tag; made in house; host or cells: E. coli
The experiment is described as follows: KRAS Binding Disruption Assay (AlphaScreen; biotinylated KRpep-2d analogue or RAF1-RBD), G12D. The note with it: KRAS G12D; geometric mean; read-out: KRAS GMean IC50 (uM) MUTATION: G12D. An outline of the steps: as §1

T2 sequence (P01116 1-188 isoform P01116-2 G12D): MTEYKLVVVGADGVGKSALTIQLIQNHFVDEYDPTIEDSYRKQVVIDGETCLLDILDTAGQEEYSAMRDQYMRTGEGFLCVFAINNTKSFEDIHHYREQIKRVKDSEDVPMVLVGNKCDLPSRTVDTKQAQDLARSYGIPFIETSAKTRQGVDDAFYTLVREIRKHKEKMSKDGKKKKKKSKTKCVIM
T1 sequence (P01116 1-188 isoform P01116-2 G12C): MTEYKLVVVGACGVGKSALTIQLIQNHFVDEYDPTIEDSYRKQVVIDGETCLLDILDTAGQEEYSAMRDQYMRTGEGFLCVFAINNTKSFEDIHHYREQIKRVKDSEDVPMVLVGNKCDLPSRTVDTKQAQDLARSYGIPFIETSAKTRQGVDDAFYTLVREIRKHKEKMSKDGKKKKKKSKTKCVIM

By IC50 is commonly meant the concentration needed to halve the response being measured. Regarding `Fc1cc2c(N3C[C@H]4CC[C@@H](C3)N4)nc(OCC34CCCN3CCC4)nc2c(F)c1-c1c[nH]c2cccc(C3CC3)c12` [P-0730, 4-((1R,5S)-3,8-diazabicyclo[3.2.1]octan-3-yl)-7-(4-cyclopropyl-1H-indol-3-yl)-6,8-difluoro-2-((tetrahydro-1H-pyrrolizin-7a(5H)-yl)methoxy)quinazoline], the IC50 in experiment [1] and in experiment [2] was 0.0001 to 10 µM throughout.

With `CCc1cccc2[nH]cc(-c3c(F)cc4c(N5C[C@H]6CC[C@@H](C5)N6)nc(OCC56CCCN5CCC6)nc4c3F)c12` [P-0731, 4-((1R,5S)-3,8-diazabicyclo[3.2.1]octan-3-yl)-7-(4-ethyl-1H-indol-3-yl)-6,8-difluoro-2-((tetrahydro-1H-pyrrolizin-7a(5H)-yl)methoxy)quinazoline], the half-inhibitory concentration (IC50) in experiment [1] and in experiment [2] was 0.0001 to 10 µM in each case.

`NC(=O)COc1nc(N2C[C@H]3CC[C@@H](C2)N3)c2ccc(-c3cc(O)cc4ccccc34)c(F)c2n1` [P-0732, 2-((4-((1R,5S)-3,8-diazabicyclo[3.2.1]octan-3-yl)-8-fluoro-7-(3-hydroxynaphthalen-1-yl)quinazolin-2-yl)oxy)acetamide]: the IC50 lay in the range of 10 to 100 µM in experiment [1] and 0.0001 to 10 µM in experiment [2].

Regarding `CNC(=O)COc1nc(N2C[C@H]3CC[C@@H](C2)N3)c2ccc(-c3cc(O)cc4ccccc34)c(F)c2n1` [P-0733, 2-((4-((1R,5S)-3,8-diazabicyclo[3.2.1]octan-3-yl)-8-fluoro-7-(3-hydroxynaphthalen-1-yl)quinazolin-2-yl)oxy)-N-methylacetamide], the values for the IC50 in experiment [1] and in experiment [2] were 10 to 100 µM and 0.0001 to 10 µM, respectively.

Regarding `Oc1cc(-c2ccc3c(N4C[C@H]5CC[C@@H](C4)N5)nc(OCC4(O)CC4)nc3c2F)c2ccccc2c1` [P-0734, 4-(4-((1R,5S)-3,8-diazabicyclo[3.2.1]octan-3-yl)-8-fluoro-2-((1-hydroxycyclopropyl)methoxy)quinazo-lin-7-yl)naphthalen-2-ol], the concentration for half-maximal inhibition (IC50) in experiment [1] was 10 to 100 µM; in experiment [2], 0.0001 to 10 µM.

Regarding `CC(C)(COc1nc(N2C[C@H]3CC[C@@H](C2)N3)c2ccc(-c3cc(O)cc4ccccc34)c(F)c2n1)NC(=O)OCc1ccccc1` [P-0735, benzyl (1-((4-((1R,5S)-3,8-diazabicyclo[3.2.1]octan-3-yl)-8-fluoro-7-(3-hydroxynaphthalen-1-yl)quinazolin-2-yl)oxy)-2-methylpropan-2-yl)carbamate], the values for the IC50 in experiment [1] and in experiment [2] were 100 to 1000 µM and 0.0001 to 10 µM, respectively.

Consider `CN(C)C(C)(C)COc1nc(N2C[C@H]3CC[C@@H](C2)N3)c2ccc(-c3cc(O)cc4ccccc34)c(F)c2n1` [P-0736, 4-(4-((1R,5S)-3,8-diazabicyclo[3.2.1]octan-3-yl)-2-(2-(dimethylamino)-2-methylpropoxy)-8-fluoroquinazolin-7-yl)naphthalen-2-ol], for which the IC50 fell in the range of 10 to 100 µM in experiment [1] and 0.0001 to 10 µM in experiment [2].

Regarding `Fc1cc2c(N3C[C@H]4CC[C@@H](C3)N4)nc(OCC34CCCN3CCC4)nc2c(F)c1-c1c[nH]c2cccc(C(F)(F)F)c12` [P-0737, 4-((1R,5S)-3,8-diazabicyclo[3.2.1]octan-3-yl)-6,8-difluoro-2-((tetrahydro-1H-pyrrolizin-7a(5H)-yl)methoxy)-7-(4-(trifluoromethyl)-1H-indol-3-yl)quinazoline], the half-maximal inhibitory concentration (IC50) in experiment [1] and in experiment [2] was 0.0001 to 10 µM each time.

Consider `Oc1cc(-c2ccc3c(N4C[C@H]5CC[C@@H](C4)N5)nc(OCC4CCC(F)(F)C4)nc3c2F)c2ccccc2c1` (stereo partly drawn) [P-0738, 4-(4-((1R,5S)-3,8-diazabicyclo[3.2.1]octan-3-yl)-2-((3,3-difluorocyclopentyl)methoxy)-8-fluoroquinazolin-7-yl)naphthalen-2-ol], for which the half-inhibitory concentration (IC50) in experiment [1] was 10 to 100 µM; in experiment [2] it was 0.0001 to 10 µM.

With `Oc1cc(-c2ccc3c(N4C[C@H]5CC[C@@H](C4)N5)nc(OCC4CCCC4(F)F)nc3c2F)c2ccccc2c1` (stereo partly drawn) [P-0739, 4-(4-((1R,5S)-3,8-diazabicyclo[3.2.1]octan-3-yl)-2-((2,2-difluorocyclopentyl)methoxy)-8-fluoroquinazolin-7-yl)naphthalen-2-ol], the half-maximal inhibitory concentration (IC50) in experiment [1] was in the range of 10 to 100 µM; in experiment [2], 0.0001 to 10 µM.

Turning to `Oc1cc(-c2ccc3c(N4C[C@H]5CC[C@@H](C4)N5)nc(OCC4CC(F)(F)C4(F)F)nc3c2F)c2ccccc2c1` (stereo partly drawn) [P-0740, 4-(4-((1R,5S)-3,8-diazabicyclo[3.2.1]octan-3-yl)-8-fluoro-2-((2,2,3,3-tetrafluorocyclobutyl)methoxy)quinaz-olin-7-yl)naphthalen-2-ol], the IC50 in experiment [1] fell in the range of 10 to 100 µM; in experiment [2], 0.0001 to 10 µM.

As for `Oc1cc(-c2ccc3c(N4C[C@H]5CC[C@@H](C4)N5)nc(OCC4CC4(F)F)nc3c2F)c2ccccc2c1` (stereo partly drawn) [P-0741, 4-(4-((1R,5S)-3,8-diazabicyclo[3.2.1]octan-3-yl)-2-((2,2-difluorocyclopropyl)methoxy)-8-fluoroquinazolin-7-yl)naphthalen-2-ol], the figures for the concentration for half-maximal inhibition (IC50) in experiment [1] and in experiment [2] were 10 to 100 µM and 0.0001 to 10 µM, respectively.

With `CN1C(=O)CCC1COc1nc(N2C[C@H]3CC[C@@H](C2)N3)c2ccc(-c3cc(O)cc4ccccc34)c(F)c2n1` (stereo partly drawn) [P-0742, 5-(((4-((1R,5S)-3,8-diazabicyclo[3.2.1]octan-3-yl)-8-fluoro-7-(3-hydroxynaphthalen-1-yl)quinazolin-2-yl)oxy)methyl)-1-methylpyrrolidin-2-one], the figures for the IC50 in experiment [1] and in experiment [2] were 10 to 100 µM and 0.0001 to 10 µM, respectively.

As to `O=C(O)CCOc1nc(N2C[C@H]3CC[C@@H](C2)N3)c2ccc(-c3cc(O)cc4ccccc34)c(F)c2n1` [P-0743, 3-((4-((1R,5S)-3,8-diazabicyclo[3.2.1]octan-3-yl)-8-fluoro-7-(3-hydroxynaphthalen-1-yl)quinazolin-2-yl)oxy)propanoic acid], the figures for the IC50 in experiment [1] and in experiment [2] were 10 to 100 µM and 0.0001 to 10 µM, respectively.

As for `CC(C)(C)OC(=O)COc1nc(N2C[C@H]3CC[C@@H](C2)N3)c2ccc(-c3cc(O)cc4ccccc34)c(F)c2n1` [P-0744, tert-butyl 2-((4-((1R,5S)-3,8-diazabicyclo[3.2.1]octan-3-yl)-8-fluoro-7-(3-hydroxynaphthalen-1-yl)quinazolin-2-yl)oxy)acetate], the concentration for half-maximal inhibition (IC50) in experiment [1] lay within 10 to 100 µM; in experiment [2], 0.0001 to 10 µM.

In the case of `O=C(O)COc1nc(N2C[C@H]3CC[C@@H](C2)N3)c2ccc(-c3cc(O)cc4ccccc34)c(F)c2n1` [P-0745, 2-((4-((1R,5S)-3,8-diazabicyclo[3.2.1]octan-3-yl)-8-fluoro-7-(3-hydroxynaphthalen-1-yl)quinazolin-2-yl)oxy)acetic acid], the figures for the IC50 in experiment [1] and in experiment [2] were 10 to 100 µM and 0.0001 to 10 µM, respectively.

As to `Fc1cc2c(N3C[C@H]4CC[C@@H](C3)N4)nc(OCC34CCCN3CCC4)nc2c(F)c1-c1c[nH]c2c(F)ccc(F)c12` [P-0746, 4-((1R,5S)-3,8-diazabicyclo[3.2.1]octan-3-yl)-7-(4,7-difluoro-1H-indol-3-yl)-6,8-difluoro-2-((tetrahydro-1H-pyrrolizin-7a(5H)-yl)methoxy)quinazoline], the values for the concentration for half-maximal inhibition (IC50) in experiment [1] and in experiment [2] were 10 to 100 µM and 0.0001 to 10 µM, respectively.

In the case of `Fc1cc(F)c2[nH]cc(-c3c(F)cc4c(N5C[C@H]6CC[C@@H](C5)N6)nc(OCC56CCCN5CCC6)nc4c3F)c2c1` [P-0747, 4-((1R,5S)-3,8-diazabicyclo[3.2.1]octan-3-yl)-7-(5,7-difluoro-1H-indol-3-yl)-6,8-difluoro-2-((tetrahydro-1H-pyrrolizin-7a(5H)-yl)methoxy)quinazoline], the concentration for half-maximal inhibition (IC50) in experiment [1] is 10 to 100 µM; in experiment [2], 0.0001 to 10 µM.
